IC50 data for three compounds are collected here from patent US20190327965A1, “AGENTS AND METHODS FOR TREATMENT OF PATHOGENS” (Hexima Limited, priority 2014, published 2019).

Each structure is given as a SMILES string. Bridge positions count the residues as written; N and C are the ends. Peptide text beside a SMILES is read from it.

For test [1], the system named is Colletotrichum graminicola.
The subject of test [2] is Fusarium graminearum.
For test [3], the system named is Candida albicans.
The test system of test [4] is Trichophyton rubrum.
In test [5] the test system is Saccharomyces cerevisiae. Put plainly: Growth inhibition by hairpin peptide alone, Saccharomyces cerevisiae. As to conditions: hairpin peptide on its own. Type of test: cell-based. From the text:
Some α-hairpinin and β-hairpin peptides show efficacy on their own against pathogens at a concentration higher than the concentration used in a combination with a plant defensin.

What is called IC50 is the concentration needed to halve the response being measured. Consider `CC[C@H](C)[C@@H]1NC(=O)[C@H](CCCCN)NC(=O)[C@H]([C@@H](C)CC)NC(=O)[C@H](CCC(N)=O)NC(=O)[C@H](CCCNC(=N)N)NC(=O)[C@@H](NC(=O)[C@@H](NC(=O)[C@H](CO)NC(=O)[C@@H](N)CCCNC(=N)N)C(C)C)CSSC[C@@H](C(=O)N[C@H](C(=O)N[C@@H](CC(N)=O)C(=O)N[C@@H](CCCNC(=N)N)C(=O)N2CCC[C@H]2C(=O)N[C@@H](Cc2ccc(O)cc2)C(=O)O)[C@@H](C)O)NC(=O)[C@H](CCCCN)NC(=O)[C@H](Cc2ccc(O)cc2)NC(=O)[C@H](Cc2ccc(O)cc2)NC(=O)[C@@H]2CSSC[C@H](NC1=O)C(=O)N[C@@H](CCCNC(=N)N)C(=O)N[C@@H](CCCNC(=N)N)C(=O)N[C@@H](CCCNC(=N)N)C(=O)NCC(=O)NCC(=O)N2` [Androctonin] (H-RSVCRQIKICRRRGGCYYKCTNRPY-OH; disulfide 4-20, 10-16 (inferred); N-terminus and C-terminus assumed), for which the IC50 in test [1] was 13 µM; in test [2], 7 µM; in test [3], 7 µM; in test [4], 1 µM.
Consider `CC(C)[C@@H]1NC(=O)[C@H](CCCNC(=N)N)NC(=O)[C@H](Cc2ccccc2)NC(=O)[C@@H](NC(=O)[C@H](Cc2c[nH]c3ccccc23)NC(=O)[C@H](CCCNC(=N)N)NC(=O)[C@@H](N)CCCNC(=N)N)CSSC[C@@H](C(=O)N[C@@H](CCCNC(=N)N)C(N)=O)NC(=O)[C@H](CCCCN)NC(=O)[C@H](CCCNC(=N)N)NC(=O)[C@H](Cc2ccc(O)cc2)NC(=O)[C@@H]2CSSC[C@H](NC1=O)C(=O)N[C@@H](Cc1ccc(O)cc1)C(=O)N[C@@H](CCCNC(=N)N)C(=O)NCC(=O)N[C@@H](Cc1ccccc1)C(=O)N2` [Polyphemusin I] (H-RRWCFRVCYRGFCYRKCR-NH2; disulfide 4-17, 8-13; N-terminus and C-terminus assumed), for which the IC50 in test [1] turned out to be 6 µM; in test [2], 3 µM; in test [3], 4 µM; in test [4] it was 1 µM.
`CSCC[C@@H]1NC(=O)[C@H](CCCNC(=N)N)NC(=O)[C@@H](NC(=O)[C@H](Cc2c[nH]c3ccccc23)NC(=O)[C@H](CCC(N)=O)NC(=O)[C@H](CC(C)C)NC(=O)[C@H](CC(=O)O)NC(=O)CNC(=O)[C@@H](N)CCCCN)CSSC[C@@H](C(=O)N[C@@H](CCCNC(=N)N)C(=O)N[C@@H](CCC(N)=O)C(=O)N[C@@H](CCCNC(=N)N)C(=O)N[C@@H](Cc2c[nH]cn2)C(=O)N[C@@H](CCCNC(=N)N)C(=O)NCC(=O)O)NC(=O)[C@H](CCC(=O)O)NC(=O)[C@H](CCCNC(=N)N)NC(=O)[C@H](CCC(=O)O)NC(=O)[C@@H]2CSSC[C@H](NC(=O)CNC1=O)C(=O)N[C@@H](CCC(N)=O)C(=O)N[C@@H](Cc1c[nH]c3ccccc13)C(=O)N[C@@H](CCC(N)=O)C(=O)N[C@@H](Cc1ccc(O)cc1)C(=O)NCC(=O)N[C@@H](CCCCN)C(=O)N[C@@H](CC(=O)O)C(=O)N[C@@H](CCC(N)=O)C(=O)NCC(=O)N[C@@H](CCCNC(=N)N)C(=O)N[C@@H](CCCNC(=N)N)C(=O)N[C@@H](CO)C(=O)N[C@@H](CCC(=O)O)C(=O)N2` [Sit_HPN_100A] (H-KGDLQWCRMGCQWQYGKDQGRRSECERECRQRHRG-OH; disulfide 7-29, 11-25 (inferred); N-terminus and C-terminus assumed): the IC50 in test [5] amounted to 8 µM; in test [1] it was 14 µM; in test [2], 8 µM; in test [3], 8 µM; in test [4], 20 µM.
